Among the test systems are T-47D breast; PC-3 prostate; OVCAR-5 ovarian; SK-MEL-28 melanoma; UO-31 renal; 786-0 renal; NCI-H460 lung; SR leukemia; UACC-62 melanoma; K-562 leukemia; A498 renal; CCRF-CEM leukemia; SNB-19 CNS; NCI-H226 lung; CAKI-1 renal; SF-539 CNS; NCI-H522 lung; SF-295 CNS; MCF7 breast; SF-268 CNS.
What all share (experiment): NCI-60 cell line screen, 48 h

Molecules are shown by their SMILES.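 These data come from cells grown in 96-well plates and exposed to compound for 48 hours at five concentrations. TGI: concentration producing complete growth inhibition.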

On to `O=C(CC(=O)n1nc(-c2ccccc2)c(N=Nc2ccc(Cl)cc2)c1-c1ccccc1)Nc1cccc(Cl)c1`, for which the TGI in the test on T-47D breast, with PC-3 prostate, in the test with OVCAR-5 ovarian, in the test on SK-MEL-28 melanoma, in the test with UO-31 renal and in the test with 786-0 renal was > 100 µM in each case. Further, the TGI in the test with NCI-H460 lung, in the test with SR leukemia, with UACC-62 melanoma, in the test on K-562 leukemia, in the test with A498 renal and in the test on CCRF-CEM leukemia was > 100 µM each time. Moreover, the TGI in the test on SNB-19 CNS and with NCI-H226 lung was > 100 µM in each case.

Consider `Cc1cc(C)cc(Nc2nnc3n2S(=O)(=O)c2cc(C#N)c(Cl)cc2S3)c1`, for which the TGI in the test with T-47D breast came to 31.6 µM; in the test with CAKI-1 renal, 12.6 µM; in the test with OVCAR-5 ovarian it was 9.55 µM; with SF-539 CNS, 3.97 µM; in the test on SK-MEL-28 melanoma it was 14.2 µM; in the test on UO-31 renal, 17 µM. Besides, the TGI in the test on NCI-H522 lung was 4.59 µM; with 786-0 renal, > 100 µM; in the test on SF-295 CNS it was 9.2 µM; in the test with MCF7 breast it was 6.56 µM; in the test on NCI-H460 lung it was 12.2 µM; with SF-268 CNS it was 5.48 µM. The TGI in the test with SR leukemia is 3.42 µM; in the test with UACC-62 melanoma it was 15.4 µM; with K-562 leukemia it was > 100 µM; with A498 renal, 31.4 µM; with CCRF-CEM leukemia it was 4.32 µM; in the test on SNB-19 CNS, 21.6 µM. The compound further showed a TGI in the test with NCI-H226 lung of 26.1 µM.

Regarding `Cc1oc2nc(N(C)C)nc(Cl)c2c1C`, the TGI in the test with T-47D breast, in the test on PC-3 prostate, in the test with CAKI-1 renal, in the test with OVCAR-5 ovarian, in the test on SF-539 CNS and with SK-MEL-28 melanoma was > 100 µM each time. Moreover, the TGI in the test on UO-31 renal, with NCI-H522 lung, in the test on 786-0 renal, in the test on SF-295 CNS, with NCI-H460 lung and in the test on SF-268 CNS was > 100 µM each time. For the same compound, the TGI in the test on UACC-62 melanoma, with K-562 leukemia, with A498 renal, with CCRF-CEM leukemia, in the test on SNB-19 CNS and in the test with NCI-H226 lung was > 100 µM throughout.

As to `COC(=O)c1ccc2c(c1)CC1(C2)Cc2cc3c(cc2C1=O)CCC3` (stereo not given), the TGI is > 100 µM with T-47D breast; > 100 µM in the test on PC-3 prostate; 96.5 µM in the test on CAKI-1 renal; > 100 µM in the test with OVCAR-5 ovarian; > 100 µM in the test with SF-539 CNS; > 100 µM in the test on SK-MEL-28 melanoma. The TGI in the test on UO-31 renal is > 100 µM; in the test on NCI-H522 lung, > 100 µM; in the test with 786-0 renal, > 100 µM; in the test on SF-295 CNS, > 100 µM; with MCF7 breast it was 50.9 µM; in the test with NCI-H460 lung it was > 100 µM. The TGI in the test with SF-268 CNS is > 100 µM; in the test with K-562 leukemia it was > 100 µM; with A498 renal, > 100 µM; with CCRF-CEM leukemia it was 52.7 µM; with SNB-19 CNS, > 100 µM.

As to `CCCCCCCCCCCCCCCCCc1cccc(OCOCCOC)c1CO`, the TGI with PC-3 prostate, in the test with CAKI-1 renal, in the test with OVCAR-5 ovarian, in the test with SF-539 CNS, in the test on SK-MEL-28 melanoma and in the test on UO-31 renal was > 100 µM each time. The TGI with NCI-H522 lung, in the test with 786-0 renal, in the test on SF-295 CNS, in the test on MCF7 breast, in the test on NCI-H460 lung and in the test on SF-268 CNS was > 100 µM in each case. For the same compound, the TGI with SR leukemia, with UACC-62 melanoma, in the test on K-562 leukemia, in the test on A498 renal, in the test with CCRF-CEM leukemia and in the test on SNB-19 CNS was > 100 µM each time. Also, the TGI in the test on NCI-H226 lung was > 100 µM.

With `N#CC1=C(N2CCCC2)NC(=O)CC1=O`, the TGI in the test on T-47D breast, in the test with PC-3 prostate, in the test with CAKI-1 renal, in the test with OVCAR-5 ovarian, with SF-539 CNS and in the test on SK-MEL-28 melanoma was > 100 µM in each case. Moreover, the TGI with UO-31 renal, with NCI-H522 lung, in the test on 786-0 renal, in the test with SF-295 CNS, in the test with NCI-H460 lung and in the test on SF-268 CNS was > 100 µM throughout. In addition, the TGI in the test with SR leukemia, in the test on UACC-62 melanoma, in the test on K-562 leukemia, in the test with A498 renal, with CCRF-CEM leukemia and in the test with SNB-19 CNS was > 100 µM each time. Also, the TGI with NCI-H226 lung was > 100 µM.

Regarding `CC(=O)O[C@@H]1C=C(C)[C@H](CBr)O[C@@]2(C)CC[C@H](Br)C(C)(C)[C@H]12`, the TGI in the test with PC-3 prostate, in the test on CAKI-1 renal, in the test on OVCAR-5 ovarian, in the test with SF-539 CNS, in the test on SK-MEL-28 melanoma and in the test with UO-31 renal was > 100 µM throughout. Moreover, the TGI with NCI-H522 lung is 90.2 µM; in the test with 786-0 renal, > 100 µM; in the test with SF-295 CNS, > 100 µM; in the test with MCF7 breast, > 100 µM; in the test with NCI-H460 lung, > 100 µM; in the test with SF-268 CNS it was > 100 µM. Further, the TGI with SR leukemia, in the test on UACC-62 melanoma, in the test on K-562 leukemia, in the test on A498 renal, with CCRF-CEM leukemia and with SNB-19 CNS was > 100 µM in each case. Besides, the TGI in the test with NCI-H226 lung is > 100 µM.

Values taken from PubChem BioAssay (NCI).
